Assay results: patent publication US20200187499A1, “SUBSTITUTED BENZYL-4-AMINOPICOLINIC ESTERS AND PYRIMIDINO-4-CARBOXYLIC ESTERS, METHODS FOR THE PRODUCTION THEREOF, AND USE THEREOF AS HERBICIDES AND PLANT GROWTH REGULATORS” (Bayer CropScience Aktiengesellschaft, priority 2017, published 2020)

What was measured:
Type in all cases: in vivo
[1] = test system: AMARE; experiment: Pre-emergence herbicidal action; settings: 320 g/ha, scored after 3 weeks
From the text: (§1) Seeds of monocotyledonous and dicotyledonous weed plants and crop plants are laid out in sandy loam soil in wood-fiber pots and covered with soil. The compounds of the invention, formulated in the form of wettable powders (WP) or as emulsion concentrates (EC), are then applied to the surface of the covering soil in the form of an aqueous suspension or emulsion at a water application rate equating to 600 to 800 I/ha, with addition of 0.2% wetting agent. After the treatment, the pots are placed in a greenhouse and kept under good growth conditions for the trial plants. The damage to the test plants is scored visually after a test period of 3 weeks by comparison with untreated controls (herbicidal activity in percent (%): 100% activity=the plants have died, 0% activity=like control plants).
(§2) At the same time, inventive compounds leave Gramineae crops such as barley, wheat, rye, millet/sorghum, corn or rice virtually undamaged when applied pre-emergence, even at high active ingredient dosages. In addition, some substances are also harmless to dicotyledonous crops such as soya, cotton, oilseed rape, sugar beet or potatoes. […] The tables below illustrate, in an exemplary manner, the pre-emergence herbicidal action of the compounds according to the invention, the herbicidal activity being stated in percent.

[2] = test system: ECHCG; experiment: Pre-emergence herbicidal action; settings: 320 g/ha, scored after 3 weeks
From the text: as §1, §2

[3] = test system: ABUTH; experiment: Post-emergence herbicidal action; settings: 320 g/ha, assessed after about 3 weeks
Description: (§3) Seeds of monocotyledonous and dicotyledonous weed and crop plants are laid out in sandy loam soil in wood-fiber pots, covered with soil and cultivated in a greenhouse under good growth conditions. 2 to 3 weeks after sowing, the test plants are treated at the one-leaf stage. The compounds of the invention, formulated in the form of wettable powders (WP) or as emulsion concentrates (EC), are then sprayed onto the green parts of the plants in the form of an aqueous suspension or emulsion at a water application rate equating to 600 to 800 l/ha, with addition of 0.2% wetting agent. After the test plants have been left to stand in the greenhouse under optimal growth conditions for about 3 weeks, the action of the preparations is assessed visually in comparison to untreated controls (herbicidal action in percent (%): 100% activity=the plants have died, 0% activity=like control plants). […] At the same time, inventive compounds leave Gramineae crops such as barley, wheat, rye, millet/sorghum, corn or rice virtually undamaged when applied post-emergence, even at high active ingredient dosages. In addition, some substances are also harmless to dicotyledonous crops such as soya, cotton, oilseed rape, sugar beet or potatoes. Some of the compounds according to the invention have high selectivity and are therefore suitable for controlling unwanted vegetation in agricultural crops by the post-emergence method. The tables below illustrate, in an exemplary manner, the post-emergence herbicidal action of the compounds according to the invention, the herbicidal activity being stated in percent.

[4] = test system: AMARE; experiment: Post-emergence herbicidal action; settings: 320 g/ha, assessed after about 3 weeks
Description: as §3

[5] = test system: ECHCG; experiment: Post-emergence herbicidal action; settings: 320 g/ha, assessed after about 3 weeks
Description: as §3

[6] = test system: SETVI; experiment: Post-emergence herbicidal action; settings: 320 g/ha, assessed after about 3 weeks
Description: as §3

[7] = test system: ABUTH; experiment: Pre-emergence herbicidal action; settings: Table 3, pre-emergence (PE), 320 g/ha, scored after 3 weeks
From the text: as §1, §2

[8] = test system: ALOMY; experiment: Pre-emergence herbicidal action; settings: Table 3, pre-emergence (PE), 320 g/ha, scored after 3 weeks
From the text: as §1, §2

[9] = test system: SETVI; experiment: Pre-emergence herbicidal action; settings: Table 3, pre-emergence (PE), 320 g/ha, scored after 3 weeks
From the text: as §1, §2

[10] = test system: STEME; experiment: Post-emergence herbicidal action; settings: Table 6, post-emergence (PO), 320 g/ha, assessed after about 3 weeks
Description: as §3

COc1c(F)ccc(COC(=O)c2nc(-c3ccc4occc4c3)cc(N)c2Cl)c1F [Example I-17]
Herbicidal action against AMARE ([1]; Table 4, pre-emergence (PE)): 100% | Herbicidal action against ECHCG ([2]; Table 4, pre-emergence (PE)): 90% | Herbicidal action against ABUTH ([3]; Table 7, post-emergence (PO)): 90% | Herbicidal action against ABUTH ([3]; Table 8, post-emergence (PO)): 90% | Herbicidal action against AMARE ([4]; Table 7, post-emergence (PO)): 100% | Herbicidal action against AMARE ([4]; Table 8, post-emergence (PO)): 100% | Herbicidal action against ECHCG ([5]; Table 7, post-emergence (PO)): 90% | Herbicidal action against ECHCG ([5]; Table 8, post-emergence (PO)): 90% | Herbicidal action against SETVI ([6]; Table 7, post-emergence (PO)): 100% | Herbicidal action against SETVI ([6]; Table 8, post-emergence (PO)): 100%

Nc1cc(-c2ccc3ncsc3c2)nc(C(=O)OCc2cccc(Cl)c2)c1Cl [Example I-60]
Herbicidal action against ABUTH ([3]; Table 7, post-emergence (PO)): 90% | Herbicidal action against ABUTH ([3]; Table 8, post-emergence (PO)): 90% | Herbicidal action against AMARE ([4]; Table 7, post-emergence (PO)): 80% | Herbicidal action against AMARE ([4]; Table 8, post-emergence (PO)): 80% | Herbicidal action against ECHCG ([5]; Table 7, post-emergence (PO)): 90% | Herbicidal action against ECHCG ([5]; Table 8, post-emergence (PO)): 90% | Herbicidal action against SETVI ([6]; Table 7, post-emergence (PO)): 80% | Herbicidal action against SETVI ([6]; Table 8, post-emergence (PO)): 80%

Nc1cc(-c2ccc3ccoc3c2)nc(C(=O)OCc2ccc(F)cc2F)c1Cl [Example I-43]
Herbicidal action against AMARE ([1]; Table 4, pre-emergence (PE)): 100% | Herbicidal action against ECHCG ([2]; Table 4, pre-emergence (PE)): 0% | Herbicidal action against ABUTH ([3]; Table 7, post-emergence (PO)): 90% | Herbicidal action against ABUTH ([3]; Table 8, post-emergence (PO)): 90% | Herbicidal action against AMARE ([4]; Table 7, post-emergence (PO)): 100% | Herbicidal action against AMARE ([4]; Table 8, post-emergence (PO)): 100% | Herbicidal action against ECHCG ([5]; Table 7, post-emergence (PO)): 80% | Herbicidal action against ECHCG ([5]; Table 8, post-emergence (PO)): 80% | Herbicidal action against SETVI ([6]; Table 7, post-emergence (PO)): 90% | Herbicidal action against SETVI ([6]; Table 8, post-emergence (PO)): 90%

Nc1c(F)c(-c2ccc3occc3c2)nc(C(=O)OCc2c(F)cc(F)cc2F)c1Cl [Example I-52]
Herbicidal action against ABUTH [7]: 20% | Herbicidal action against ALOMY [8]: 80% | Herbicidal action against AMARE ([1]; Table 3, pre-emergence (PE)): 80% | Herbicidal action against ECHCG ([2]; Table 3, pre-emergence (PE)): 30% | Herbicidal action against SETVI [9]: 40% | Herbicidal action against ABUTH ([3]; Table 6, post-emergence (PO)): 80% | Herbicidal action against AMARE ([4]; Table 6, post-emergence (PO)): 90% | Herbicidal action against SETVI ([6]; Table 6, post-emergence (PO)): 20% | Herbicidal action against STEME [10]: 80%

Nc1c(F)c(-c2ccc3ccoc3c2)nc(C(=O)OCc2ccc(Cl)cc2)c1Cl [Example I-15]
Herbicidal action against ABUTH [7]: 90% | Herbicidal action against ALOMY [8]: 0% | Herbicidal action against AMARE ([1]; Table 3, pre-emergence (PE)): 100% | Herbicidal action against ECHCG ([2]; Table 3, pre-emergence (PE)): 30% | Herbicidal action against SETVI [9]: 0% | Herbicidal action against ABUTH ([3]; Table 6, post-emergence (PO)): 100% | Herbicidal action against AMARE ([4]; Table 6, post-emergence (PO)): 100% | Herbicidal action against SETVI ([6]; Table 6, post-emergence (PO)): 80% | Herbicidal action against STEME [10]: 80%

Nc1cc(-c2ccc3occc3c2)nc(C(=O)OCc2cccc(C(F)(F)F)c2)c1Cl [Example I-11]
Herbicidal action against ABUTH [7]: 20% | Herbicidal action against ALOMY [8]: 80% | Herbicidal action against AMARE ([1]; Table 3, pre-emergence (PE)): 100% | Herbicidal action against ECHCG ([2]; Table 3, pre-emergence (PE)): 80% | Herbicidal action against SETVI [9]: 100% | Herbicidal action against ABUTH ([3]; Table 6, post-emergence (PO)): 100% | Herbicidal action against AMARE ([4]; Table 6, post-emergence (PO)): 100% | Herbicidal action against SETVI ([6]; Table 6, post-emergence (PO)): 90% | Herbicidal action against STEME [10]: 100%

Nc1c(F)c(-c2ccc3occc3c2)nc(C(=O)OCc2ccc(Cl)cc2)c1Cl [Example I-47]
Herbicidal action against ABUTH [7]: 20% | Herbicidal action against ALOMY [8]: 60% | Herbicidal action against AMARE ([1]; Table 3, pre-emergence (PE)): 100% | Herbicidal action against ECHCG ([2]; Table 3, pre-emergence (PE)): 70% | Herbicidal action against SETVI [9]: 50% | Herbicidal action against ABUTH ([3]; Table 6, post-emergence (PO)): 90% | Herbicidal action against AMARE ([4]; Table 6, post-emergence (PO)): 90% | Herbicidal action against SETVI ([6]; Table 6, post-emergence (PO)): 70% | Herbicidal action against STEME [10]: 80%

Nc1cc(-c2ccc3ccsc3c2)nc(C(=O)OCc2c(F)cc(F)cc2F)c1Cl [Example I-32]
Herbicidal action against ABUTH [7]: 30% | Herbicidal action against ALOMY [8]: 70% | Herbicidal action against AMARE ([1]; Table 3, pre-emergence (PE)): 100% | Herbicidal action against ECHCG ([2]; Table 3, pre-emergence (PE)): 80% | Herbicidal action against SETVI [9]: 80% | Herbicidal action against ABUTH ([3]; Table 9, post-emergence (PO)): 90% | Herbicidal action against AMARE ([4]; Table 9, post-emergence (PO)): 100%

Nc1c(F)c(-c2ccc3ccsc3c2)nc(C(=O)OCc2ccc(F)cc2F)c1Cl [Example I-42]
Herbicidal action against ABUTH [7]: 0% | Herbicidal action against ALOMY [8]: 30% | Herbicidal action against AMARE ([1]; Table 3, pre-emergence (PE)): 100% | Herbicidal action against ECHCG ([2]; Table 3, pre-emergence (PE)): 40% | Herbicidal action against SETVI [9]: 20% | Herbicidal action against ABUTH ([3]; Table 6, post-emergence (PO)): 80% | Herbicidal action against AMARE ([4]; Table 6, post-emergence (PO)): 90% | Herbicidal action against SETVI ([6]; Table 6, post-emergence (PO)): 20% | Herbicidal action against STEME [10]: 80%

Nc1cc(-c2ccc3ccoc3c2)nc(C(=O)OCc2c(F)c(F)c(F)c(F)c2F)c1Cl [Example I-54]
Herbicidal action against AMARE ([1]; Table 4, pre-emergence (PE)): 80% | Herbicidal action against ECHCG ([2]; Table 4, pre-emergence (PE)): 0% | Herbicidal action against ABUTH ([3]; Table 7, post-emergence (PO)): 80% | Herbicidal action against ABUTH ([3]; Table 8, post-emergence (PO)): 80% | Herbicidal action against AMARE ([4]; Table 7, post-emergence (PO)): 100% | Herbicidal action against AMARE ([4]; Table 8, post-emergence (PO)): 100% | Herbicidal action against ECHCG ([5]; Table 7, post-emergence (PO)): 80% | Herbicidal action against ECHCG ([5]; Table 8, post-emergence (PO)): 80% | Herbicidal action against SETVI ([6]; Table 7, post-emergence (PO)): 80% | Herbicidal action against SETVI ([6]; Table 8, post-emergence (PO)): 80%

Nc1cc(-c2ccc3ncsc3c2)nc(C(=O)OCc2ccc(Cl)cc2)c1Cl [Example I-69]
Herbicidal action against ABUTH ([3]; Table 7, post-emergence (PO)): 90% | Herbicidal action against ABUTH ([3]; Table 8, post-emergence (PO)): 90% | Herbicidal action against AMARE ([4]; Table 7, post-emergence (PO)): 100% | Herbicidal action against AMARE ([4]; Table 8, post-emergence (PO)): 100% | Herbicidal action against ECHCG ([5]; Table 7, post-emergence (PO)): 90% | Herbicidal action against ECHCG ([5]; Table 8, post-emergence (PO)): 90% | Herbicidal action against SETVI ([6]; Table 7, post-emergence (PO)): 80% | Herbicidal action against SETVI ([6]; Table 8, post-emergence (PO)): 80%

Nc1cc(-c2ccc3ccsc3c2)nc(C(=O)OCc2cccc(Cl)c2)c1Cl [Example I-50]
Herbicidal action against AMARE ([1]; Table 4, pre-emergence (PE)): 80% | Herbicidal action against ECHCG ([2]; Table 4, pre-emergence (PE)): 70% | Herbicidal action against ABUTH ([3]; Table 7, post-emergence (PO)): 90% | Herbicidal action against ABUTH ([3]; Table 8, post-emergence (PO)): 90% | Herbicidal action against AMARE ([4]; Table 7, post-emergence (PO)): 100% | Herbicidal action against AMARE ([4]; Table 8, post-emergence (PO)): 100% | Herbicidal action against ECHCG ([5]; Table 7, post-emergence (PO)): 90% | Herbicidal action against ECHCG ([5]; Table 8, post-emergence (PO)): 90% | Herbicidal action against SETVI ([6]; Table 7, post-emergence (PO)): 40% | Herbicidal action against SETVI ([6]; Table 8, post-emergence (PO)): 40%

Nc1cc(-c2ccc3ccoc3c2)nc(C(=O)OCc2ccc(Cl)cc2)c1Cl [Example I-30]
Herbicidal action against ABUTH [7]: 20% | Herbicidal action against ALOMY [8]: 40% | Herbicidal action against AMARE ([1]; Table 3, pre-emergence (PE)): 100% | Herbicidal action against ECHCG ([2]; Table 3, pre-emergence (PE)): 100% | Herbicidal action against SETVI [9]: 90% | Herbicidal action against ABUTH ([3]; Table 6, post-emergence (PO)): 90% | Herbicidal action against AMARE ([4]; Table 6, post-emergence (PO)): 100% | Herbicidal action against SETVI ([6]; Table 6, post-emergence (PO)): 90% | Herbicidal action against STEME [10]: 100%
